Activity, IP and Cp data for one compound are collected here from ChEMBL document CHEMBL4196115 (ACS Med Chem Lett, 2018).

Residue numbers refer to the chain shown, from its start. Active and inactive are the calls of the source. The rule behind the calls is not given here.

For experiment [1], the target named is Muscarinic acetylcholine receptor M3 (Homo sapiens) (UniProt P20309). The experiment is described as follows: Agonist activity at human muscarinic acetylcholine receptor M3 expressed in CHO cells. Format: functional, cell-based.
Sequence of Muscarinic acetylcholine receptor M3 (Homo sapiens) (P20309 whole entry, looked up): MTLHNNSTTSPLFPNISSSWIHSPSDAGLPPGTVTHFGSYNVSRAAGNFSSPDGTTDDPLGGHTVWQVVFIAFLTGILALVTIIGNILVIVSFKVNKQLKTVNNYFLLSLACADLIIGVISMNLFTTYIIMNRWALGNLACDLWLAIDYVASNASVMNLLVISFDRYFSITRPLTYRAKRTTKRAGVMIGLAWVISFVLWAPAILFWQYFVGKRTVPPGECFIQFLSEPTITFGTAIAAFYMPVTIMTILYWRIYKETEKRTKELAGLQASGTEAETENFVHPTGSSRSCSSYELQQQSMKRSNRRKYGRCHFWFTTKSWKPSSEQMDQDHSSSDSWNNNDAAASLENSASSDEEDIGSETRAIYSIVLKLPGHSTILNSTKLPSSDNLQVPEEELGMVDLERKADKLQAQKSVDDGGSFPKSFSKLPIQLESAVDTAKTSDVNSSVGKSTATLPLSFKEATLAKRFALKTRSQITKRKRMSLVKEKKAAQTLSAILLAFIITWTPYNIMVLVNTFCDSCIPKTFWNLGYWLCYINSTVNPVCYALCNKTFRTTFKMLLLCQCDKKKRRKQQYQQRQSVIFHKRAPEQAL
Experiment [2] shares this target. The experiment is described as follows: Positive allosteric modulation of human muscarinic acetylcholine receptor M3 expressed in CHO cells. It is filed as functional, cell-based.
For experiment [3], the target named is T1, Muscarinic acetylcholine receptor M1 (Mus musculus) (UniProt P12657).
T1 sequence (whole entry): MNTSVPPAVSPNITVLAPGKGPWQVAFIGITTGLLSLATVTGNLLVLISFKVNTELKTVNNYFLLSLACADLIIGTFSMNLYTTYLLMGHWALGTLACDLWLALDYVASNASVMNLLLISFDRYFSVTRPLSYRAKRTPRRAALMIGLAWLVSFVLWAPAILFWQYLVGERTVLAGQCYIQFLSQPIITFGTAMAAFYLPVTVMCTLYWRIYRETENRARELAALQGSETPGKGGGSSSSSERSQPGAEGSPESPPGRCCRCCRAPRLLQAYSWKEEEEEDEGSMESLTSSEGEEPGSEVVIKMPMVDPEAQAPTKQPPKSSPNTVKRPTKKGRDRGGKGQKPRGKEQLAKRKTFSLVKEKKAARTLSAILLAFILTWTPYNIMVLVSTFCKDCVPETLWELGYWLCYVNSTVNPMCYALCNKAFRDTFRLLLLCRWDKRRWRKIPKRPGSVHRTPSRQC
The settings on record: CHO.
Description: Positive allosteric modulation of mouse muscarinic acetylcholine receptor M1 expressed in CHO cells assessed as increase in acetylcholine-induced calcium mobilization pretreated for 4 mins followed by acetylcholine addition and measured after 4 mins by Fluo-4-AM dye based FLIPR assay

Experiment [4] concerns the target T2, Muscarinic acetylcholine receptor M5 (Homo sapiens) (UniProt P08912).
T2 sequence (whole entry): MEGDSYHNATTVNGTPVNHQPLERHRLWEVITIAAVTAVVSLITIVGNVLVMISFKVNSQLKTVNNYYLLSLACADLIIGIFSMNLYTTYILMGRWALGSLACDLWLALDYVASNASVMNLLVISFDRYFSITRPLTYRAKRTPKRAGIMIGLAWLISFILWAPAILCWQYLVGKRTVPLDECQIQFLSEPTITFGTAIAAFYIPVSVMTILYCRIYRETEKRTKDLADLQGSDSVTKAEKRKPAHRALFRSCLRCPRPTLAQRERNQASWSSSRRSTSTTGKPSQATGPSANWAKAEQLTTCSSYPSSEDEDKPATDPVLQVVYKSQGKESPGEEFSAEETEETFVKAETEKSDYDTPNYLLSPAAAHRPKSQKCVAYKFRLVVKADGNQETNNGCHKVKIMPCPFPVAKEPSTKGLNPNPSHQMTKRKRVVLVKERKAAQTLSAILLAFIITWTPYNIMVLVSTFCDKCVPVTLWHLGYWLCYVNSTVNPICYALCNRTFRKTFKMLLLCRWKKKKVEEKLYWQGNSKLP
The experiment is described as follows: Agonist activity at human muscarinic acetylcholine receptor M5 expressed in CHO cells. It is filed as functional, cell-based.

Experiment [5] concerns the target T3, Muscarinic acetylcholine receptor M4 (Homo sapiens) (UniProt P08173).
T3 sequence (whole entry): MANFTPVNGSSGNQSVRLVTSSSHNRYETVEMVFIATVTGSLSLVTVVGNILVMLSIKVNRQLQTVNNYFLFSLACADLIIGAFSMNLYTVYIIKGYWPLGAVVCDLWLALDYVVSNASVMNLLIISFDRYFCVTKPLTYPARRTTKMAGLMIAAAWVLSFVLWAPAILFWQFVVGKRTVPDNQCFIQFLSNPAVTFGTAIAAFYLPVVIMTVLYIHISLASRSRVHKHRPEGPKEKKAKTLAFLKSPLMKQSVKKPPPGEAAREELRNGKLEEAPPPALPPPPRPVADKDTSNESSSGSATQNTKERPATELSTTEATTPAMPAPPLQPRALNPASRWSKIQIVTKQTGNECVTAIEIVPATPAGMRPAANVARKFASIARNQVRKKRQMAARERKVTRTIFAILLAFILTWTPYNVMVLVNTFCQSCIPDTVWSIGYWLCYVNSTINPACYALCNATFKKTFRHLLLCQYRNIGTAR
The experiment is described as follows: Positive allosteric modulation of human muscarinic acetylcholine receptor M4 expressed in CHO cells. Format: functional, cell-based.

The target in experiment [6] is T4, Muscarinic acetylcholine receptor M2 (Homo sapiens) (UniProt P08172).
T4 sequence (whole entry): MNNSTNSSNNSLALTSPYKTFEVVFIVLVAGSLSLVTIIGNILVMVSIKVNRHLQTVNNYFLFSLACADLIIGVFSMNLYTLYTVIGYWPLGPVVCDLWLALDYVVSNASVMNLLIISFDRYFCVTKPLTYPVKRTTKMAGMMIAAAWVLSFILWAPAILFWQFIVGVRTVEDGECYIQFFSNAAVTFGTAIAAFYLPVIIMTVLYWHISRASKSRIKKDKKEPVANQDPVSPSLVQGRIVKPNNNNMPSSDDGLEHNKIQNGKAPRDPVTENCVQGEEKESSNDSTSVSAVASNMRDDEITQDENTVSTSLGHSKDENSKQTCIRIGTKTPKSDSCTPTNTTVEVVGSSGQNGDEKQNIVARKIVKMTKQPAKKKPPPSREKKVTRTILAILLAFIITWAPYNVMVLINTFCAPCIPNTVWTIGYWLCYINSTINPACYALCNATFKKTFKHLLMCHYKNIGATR
In words: Agonist activity at human muscarinic acetylcholine receptor M2 expressed in CHO cells. It is filed as functional, cell-based.

Experiment [7] has as its target T5, Muscarinic acetylcholine receptor M1 (Rattus norvegicus) (UniProt P08482).
T5 sequence (whole entry): T1 sequence (whole entry) with P309S
The settings on record: CHO.
Description: Positive allosteric modulation of rat muscarinic acetylcholine receptor M1 expressed in CHO cells assessed as increase in acetylcholine-induced calcium mobilization pretreated for 4 mins followed by acetylcholine addition and measured after 4 mins by Fluo-4-AM dye based FLIPR assay

The subject of experiment [8] is Mus musculus. In words: Antialzheimer activity in mouse assessed as plasma concentration required for reversal of scopolamine-induced emotional memory deficits by measuring increase in freezing at 3 mg/kg, ip measured after 24 hrs by contextual fear conditioning assay. Format: functional, organism-based.
The test system of experiment [9] is Mus musculus. In words: Antialzheimer activity in mouse assessed as reversal of scopolamine-induced emotional memory deficits by measuring increase in freezing at 3 mg/kg, ip measured after 24 hrs by contextual fear conditioning assay. Format: functional, organism-based.
In experiment [10] the target is T2, Muscarinic acetylcholine receptor M5 (Homo sapiens). In words: Positive allosteric modulation of human muscarinic acetylcholine receptor M5 expressed in CHO cells. Format: functional, cell-based.

As to `Cc1ccc(Cc2cc3c(=O)n([C@H]4CCCC[C@@H]4O)cnc3c3ccccc23)cn1`, the outcome in [1], in experiment [2], in experiment [4], in experiment [5], in [6] and in experiment [10] was inactive. In addition, the IP in [3] came out at 6.7 nM; in experiment [7], 14 nM. The Cp in the experiment on Mus musculus [8] was 2.4 µM. For the same compound, the result in the experiment with Mus musculus [9] was Active.
